Assay results taken from ChEMBL document CHEMBL1201862, “PubChem BioAssay data set” (2004).
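A five-concentration, 48-hour dose response in 96-well plates underlies each endpoint, interpolated linearly between surrounding concentrations. GI50 = concentration required for 50% inhibition of growth.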 Activity calls are given as the source filed them. Rule as the data show it: active = GI50 up to about 1.1 µM and inactive = higher.

Columns and labels:
Experiment in all cases: growth of human tumour cells (NCI), 48 h
NCI-H460 = system: NCI-H460
Hs-578T = system: Hs-578T
RXF 393 = system: RXF 393
SK-MEL-28 = system: SK-MEL-28
RPMI-8226 = system: RPMI-8226
SF-295 = system: SF-295
BT-549 = system: BT-549
NCI-H522 = system: NCI-H522
LOX IMVI = system: LOX IMVI
HCT-15 = system: HCT-15
OVCAR-8 = system: OVCAR-8
MDA-N = system: MDA-N
T47D = system: T47D
IGROV-1 = system: IGROV-1
OVCAR-5 = system: OVCAR-5
PC-3 = system: PC-3
UACC-62 = system: UACC-62
A498 = system: A498
HOP-62 = system: HOP-62
SF-268 = system: SF-268
MDA-MB-231 = system: MDA-MB-231
CCRF-CEM = system: CCRF-CEM
SN12C = system: SN12C
SK-OV-3 = system: SK-OV-3
SK-MEL-2 = system: SK-MEL-2
COLO 205 = system: COLO 205
HT-29 = system: HT-29
HCC 2998 = system: HCC 2998
NCI-H23 = system: NCI-H23
KM12 = system: KM12
M14 = system: M14
DU-145 = system: DU-145
SNB-19 = system: SNB-19
UO-31 = system: UO-31
TK-10 = system: TK-10
CAKI-1 = system: CAKI-1
UACC-257 = system: UACC-257
HCT-116 = system: HCT-116
Malme-3M = system: Malme-3M
HOP-92 = system: HOP-92
ACHN = system: ACHN
MDA-MB-435 = system: MDA-MB-435
OVCAR-4 = system: OVCAR-4
HL-60 = system: HL-60
A549 = system: A549
SF-539 = system: SF-539
K562 = system: K562
786-0 = system: 786-0
SR = system: SR
SNB-75 = system: SNB-75
EKVX = system: EKVX
NCI/ADR-RES = system: NCI/ADR-RES
SK-MEL-5 = system: SK-MEL-5
NCI-H226 = system: NCI-H226
SW-620 = system: SW-620
U-251 = system: U-251
MOLT-4 = system: MOLT-4
MCF7 = system: MCF7
OVCAR-3 = system: OVCAR-3
DMS-114 = system: DMS-114
SNB-78 = system: SNB-78
KM-20L2 = system: KM-20L2

Measured: GI50

C/C(=N/CC(=O)O)c1ccccc1
> 100 µM: HCT-15
inactive: NCI-H460 > 100 µM | Hs-578T > 100 µM | RXF 393 > 100 µM | SK-MEL-28 > 100 µM | RPMI-8226 > 100 µM | SF-295 > 100 µM | BT-549 61 µM | NCI-H522 34.8 µM | LOX IMVI > 100 µM | OVCAR-8 > 100 µM | MDA-N > 100 µM | T47D > 100 µM | IGROV-1 > 100 µM | OVCAR-5 > 100 µM | PC-3 > 100 µM | UACC-62 > 100 µM | A498 > 100 µM | HOP-62 > 100 µM | SF-268 > 100 µM | MDA-MB-231 > 100 µM | CCRF-CEM 27.8 µM | SN12C > 100 µM | SK-OV-3 > 100 µM | SK-MEL-2 > 100 µM | COLO 205 > 100 µM | HT-29 > 100 µM | HCC 2998 39.8 µM | NCI-H23 92.5 µM | KM12 > 100 µM | M14 > 100 µM | DU-145 > 100 µM | SNB-19 > 100 µM | UO-31 97.5 µM | TK-10 > 100 µM | CAKI-1 > 100 µM | UACC-257 > 100 µM | HCT-116 > 100 µM | Malme-3M > 100 µM | HOP-92 > 100 µM | ACHN > 100 µM | MDA-MB-435 > 100 µM | OVCAR-4 > 100 µM | HL-60 35.9 µM | A549 > 100 µM | SF-539 > 100 µM | K562 > 100 µM | 786-0 > 100 µM | SR 65 µM | SNB-75 > 100 µM | EKVX > 100 µM | NCI/ADR-RES > 100 µM | SK-MEL-5 89.5 µM | NCI-H226 > 100 µM | SW-620 > 100 µM | U-251 > 100 µM | MOLT-4 70.5 µM | MCF7 > 100 µM | OVCAR-3 > 100 µM

CC(C)(C)c1ccc(OCCOc2ccc(C(C)(C)C)cc2NC=O)c(NC=O)c1
3.81 µM: HCT-15
inactive: NCI-H460 4.01 µM | Hs-578T 12.5 µM | RXF 393 8.77 µM | SK-MEL-28 12.3 µM | RPMI-8226 2.32 µM | SF-295 5.5 µM | BT-549 15.6 µM | NCI-H522 6.7 µM | LOX IMVI 4.5 µM | OVCAR-8 11.8 µM | MDA-N 9.12 µM | T47D 6.01 µM | IGROV-1 11.3 µM | OVCAR-5 22.4 µM | PC-3 8.71 µM | UACC-62 12.5 µM | A498 15.4 µM | HOP-62 6.92 µM | SF-268 15.1 µM | MDA-MB-231 11.4 µM | CCRF-CEM 2.06 µM | SN12C 15 µM | SK-OV-3 20.9 µM | SK-MEL-2 14.9 µM | COLO 205 1.94 µM | HT-29 3.08 µM | HCC 2998 5.12 µM | NCI-H23 7.11 µM | KM12 3.77 µM | M14 5.48 µM | DU-145 17.9 µM | SNB-19 18.2 µM | UO-31 5.69 µM | TK-10 15.1 µM | CAKI-1 19.4 µM | UACC-257 5.85 µM | HCT-116 6.43 µM | Malme-3M 8.79 µM | HOP-92 7 µM | ACHN 7.78 µM | MDA-MB-435 6.85 µM | OVCAR-4 7.01 µM | HL-60 6.04 µM | A549 5.73 µM | SF-539 8.77 µM | K562 4.14 µM | 786-0 8.17 µM | SR 11.7 µM | SNB-75 19.3 µM | EKVX 10.5 µM | NCI/ADR-RES 5.68 µM | SK-MEL-5 4.13 µM | NCI-H226 10.8 µM | SW-620 4.39 µM | U-251 6.82 µM | MOLT-4 2.79 µM | MCF7 4.7 µM | OVCAR-3 14.4 µM

CCOC(=O)CCC(NC(=O)C(N)Cc1ccc(N(CCCl)CCCl)cc1)C(=O)OCC (stereo not drawn)
inactive: Hs-578T 2.24 µM | RPMI-8226 1.82 µM | SF-295 2.88 µM | BT-549 4.66 µM | MDA-N 1.64 µM | IGROV-1 1.17 µM | OVCAR-5 2.47 µM | PC-3 1.34 µM | A498 32.1 µM | HOP-62 1.79 µM | MDA-MB-231 1.69 µM | SN12C 1.51 µM | SK-OV-3 1.3 µM | SK-MEL-2 3.01 µM | KM12 1.52 µM | SNB-19 4.09 µM | TK-10 1.31 µM | UACC-257 1.22 µM | MDA-MB-435 1.49 µM | A549 2.72 µM | EKVX 2.36 µM | NCI/ADR-RES 1.33 µM | SK-MEL-5 1.5 µM | NCI-H226 6.14 µM | SW-620 1.29 µM | U-251 1.85 µM
0.538 µM: HCT-15
active: NCI-H460 0.0406 µM | RXF 393 0.515 µM | SK-MEL-28 0.719 µM | NCI-H522 0.285 µM | LOX IMVI 0.187 µM | OVCAR-8 0.867 µM | T47D 0.446 µM | UACC-62 0.34 µM | SF-268 0.592 µM | CCRF-CEM < 0.0246 µM | COLO 205 0.735 µM | HT-29 0.716 µM | HCC 2998 0.662 µM | NCI-H23 0.43 µM | M14 0.225 µM | DU-145 0.249 µM | UO-31 0.675 µM | CAKI-1 0.327 µM | HCT-116 0.375 µM | Malme-3M 0.234 µM | HOP-92 0.253 µM | ACHN 0.0532 µM | OVCAR-4 0.624 µM | HL-60 0.0665 µM | SF-539 0.741 µM | K562 0.446 µM | 786-0 0.475 µM | SR < 0.0182 µM | SNB-75 0.733 µM | MOLT-4 0.0451 µM | MCF7 0.377 µM | OVCAR-3 0.667 µM

Oc1ccccc1-c1n[nH]c(-c2ccccc2O)n1
active: NCI-H460 0.573 µM | IGROV-1 0.407 µM | SR 0.807 µM | MCF7 0.577 µM | OVCAR-3 0.28 µM
0.149 µM: HCT-15
inactive: Hs-578T > 66.1 µM | RXF 393 2.23 µM | SK-MEL-28 > 100 µM | RPMI-8226 2.44 µM | SF-295 2.52 µM | BT-549 > 100 µM | NCI-H522 1.64 µM | LOX IMVI 2.06 µM | OVCAR-8 2.72 µM | MDA-N > 100 µM | T47D 2.21 µM | OVCAR-5 7.11 µM | PC-3 2.24 µM | UACC-62 7.59 µM | A498 8.51 µM | HOP-62 1.77 µM | SF-268 3.05 µM | MDA-MB-231 1.44 µM | CCRF-CEM 1.47 µM | SN12C 2.17 µM | SK-OV-3 3.15 µM | SK-MEL-2 > 100 µM | COLO 205 4.25 µM | HT-29 3.91 µM | HCC 2998 3.9 µM | NCI-H23 1.71 µM | KM12 1.49 µM | M14 2.38 µM | DU-145 8.13 µM | UO-31 5.25 µM | TK-10 3.27 µM | CAKI-1 3.22 µM | HCT-116 1.32 µM | Malme-3M 2.84 µM | HOP-92 1.75 µM | ACHN 2.21 µM | MDA-MB-435 > 100 µM | OVCAR-4 2.36 µM | HL-60 1.27 µM | A549 2.21 µM | SF-539 4.84 µM | K562 3.64 µM | 786-0 4.18 µM | SNB-75 > 26.1 µM | EKVX 2.11 µM | NCI/ADR-RES 2.45 µM | SK-MEL-5 3.04 µM | NCI-H226 4.38 µM | SW-620 2.55 µM | U-251 3.25 µM | MOLT-4 1.24 µM

N#CN1CCC2CC(=O)CCC2C1 (stereo not drawn)
inactive: RXF 393 > 100 µM | DMS-114 > 100 µM | SK-MEL-28 > 100 µM | LOX IMVI > 100 µM | SNB-78 > 100 µM | IGROV-1 > 100 µM | OVCAR-5 > 100 µM | UACC-62 > 100 µM | SF-268 > 100 µM | SN12C > 100 µM | SK-OV-3 > 100 µM | SK-MEL-2 > 100 µM | HCC 2998 > 100 µM | NCI-H23 > 100 µM | KM12 > 100 µM | M14 > 100 µM | SNB-19 > 100 µM | UO-31 > 100 µM | TK-10 > 100 µM | CAKI-1 > 100 µM | HCT-116 > 100 µM | Malme-3M > 100 µM | HOP-92 > 100 µM | ACHN > 100 µM | OVCAR-4 > 100 µM | HL-60 > 100 µM | A549 > 100 µM | KM-20L2 > 100 µM | K562 > 100 µM | 786-0 > 100 µM | SR > 100 µM | SNB-75 > 100 µM | SK-MEL-5 > 10 µM | NCI-H226 > 100 µM | SW-620 > 100 µM | U-251 > 100 µM | MOLT-4 > 100 µM | OVCAR-3 > 100 µM
> 100 µM: HCT-15
